Assay results reported in ChEMBL document CHEMBL5291721, “A preclinical secondary pharmacology resource illuminates target-adverse drug reaction associations of marketed drugs” (Nat Commun, 2023).

Tests used:
[1] = molecular target: Voltage-gated inwardly rectifying potassium channel KCNH2 (Homo sapiens, UniProt Q12809); format: functional
[2] = molecular target: Acetylcholinesterase (Homo sapiens, UniProt P22303); format: functional
[3] = molecular target: T1, Alpha-2A adrenergic receptor (Homo sapiens, UniProt P08913)
T1 sequence (P08913 whole entry): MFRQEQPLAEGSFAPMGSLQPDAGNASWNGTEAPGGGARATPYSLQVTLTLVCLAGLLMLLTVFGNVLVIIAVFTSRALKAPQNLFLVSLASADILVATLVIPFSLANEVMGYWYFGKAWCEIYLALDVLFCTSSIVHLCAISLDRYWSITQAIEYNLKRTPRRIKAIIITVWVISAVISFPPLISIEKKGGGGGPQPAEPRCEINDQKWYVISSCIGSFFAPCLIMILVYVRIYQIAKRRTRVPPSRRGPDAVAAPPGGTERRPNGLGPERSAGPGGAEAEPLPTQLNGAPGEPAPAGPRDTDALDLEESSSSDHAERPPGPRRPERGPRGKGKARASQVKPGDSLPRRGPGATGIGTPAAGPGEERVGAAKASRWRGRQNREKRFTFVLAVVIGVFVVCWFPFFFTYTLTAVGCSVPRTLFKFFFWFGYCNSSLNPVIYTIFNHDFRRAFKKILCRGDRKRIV

[4] = molecular target: D(1A) dopamine receptor (Homo sapiens, UniProt P21728)
[5] = molecular target: D(3) dopamine receptor (Homo sapiens, UniProt P35462)
[6] = molecular target: Prothrombin (Homo sapiens, UniProt P00734); format: functional
[7] = molecular target: T2, 5-hydroxytryptamine receptor 1A (Homo sapiens, UniProt P08908)
T2 sequence (P08908 whole entry): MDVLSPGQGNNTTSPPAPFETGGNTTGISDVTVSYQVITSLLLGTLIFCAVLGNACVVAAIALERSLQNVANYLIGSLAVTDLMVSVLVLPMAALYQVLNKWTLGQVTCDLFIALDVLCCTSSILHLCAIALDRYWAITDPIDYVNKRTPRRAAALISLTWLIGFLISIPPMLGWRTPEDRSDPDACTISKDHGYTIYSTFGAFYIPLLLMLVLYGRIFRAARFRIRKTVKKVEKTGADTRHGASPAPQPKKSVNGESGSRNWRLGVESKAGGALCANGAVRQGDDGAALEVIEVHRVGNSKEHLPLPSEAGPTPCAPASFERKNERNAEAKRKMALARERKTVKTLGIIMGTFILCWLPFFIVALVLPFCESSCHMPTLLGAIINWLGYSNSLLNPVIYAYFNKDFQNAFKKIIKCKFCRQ

[8] = molecular target: 5-hydroxytryptamine receptor 2B (Homo sapiens, UniProt P41595); format: functional, cell-based
[9] = molecular target: T3, Amine oxidase [flavin-containing] A (Homo sapiens, UniProt P21397); format: functional
T3 sequence (P21397 whole entry): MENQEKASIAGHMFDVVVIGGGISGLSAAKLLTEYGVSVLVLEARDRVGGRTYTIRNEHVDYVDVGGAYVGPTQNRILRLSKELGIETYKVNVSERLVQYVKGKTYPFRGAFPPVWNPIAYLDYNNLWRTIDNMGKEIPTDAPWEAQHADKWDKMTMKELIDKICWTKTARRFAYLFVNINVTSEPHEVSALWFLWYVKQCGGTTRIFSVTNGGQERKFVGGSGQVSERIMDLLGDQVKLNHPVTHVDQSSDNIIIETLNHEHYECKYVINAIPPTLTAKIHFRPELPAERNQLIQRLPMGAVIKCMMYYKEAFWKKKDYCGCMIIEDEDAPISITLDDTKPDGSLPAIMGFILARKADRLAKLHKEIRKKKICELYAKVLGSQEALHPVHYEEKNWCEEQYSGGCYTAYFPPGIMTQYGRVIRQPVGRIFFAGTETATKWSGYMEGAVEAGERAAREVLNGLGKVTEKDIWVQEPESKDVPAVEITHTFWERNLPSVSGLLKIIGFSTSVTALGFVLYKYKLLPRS

[10] = molecular target: cGMP-inhibited 3',5'-cyclic phosphodiesterase 3A (Homo sapiens, UniProt Q14432); format: functional
[11] = molecular target: 3',5'-cyclic-AMP phosphodiesterase 4A (Homo sapiens, UniProt P27815); format: functional
[12] = molecular target: T4, Prostaglandin G/H synthase 1 (Homo sapiens, UniProt P23219); format: functional
[13] = molecular target: T4, Prostaglandin G/H synthase 1; format: functional; remark: listed apart in the source
[14] = molecular target: Sodium-dependent noradrenaline transporter (Homo sapiens, UniProt P23975)
[15] = molecular target: T5, Thromboxane A2 receptor (Homo sapiens, UniProt P21731); format: functional, cell-based
T5 sequence (P21731 whole entry): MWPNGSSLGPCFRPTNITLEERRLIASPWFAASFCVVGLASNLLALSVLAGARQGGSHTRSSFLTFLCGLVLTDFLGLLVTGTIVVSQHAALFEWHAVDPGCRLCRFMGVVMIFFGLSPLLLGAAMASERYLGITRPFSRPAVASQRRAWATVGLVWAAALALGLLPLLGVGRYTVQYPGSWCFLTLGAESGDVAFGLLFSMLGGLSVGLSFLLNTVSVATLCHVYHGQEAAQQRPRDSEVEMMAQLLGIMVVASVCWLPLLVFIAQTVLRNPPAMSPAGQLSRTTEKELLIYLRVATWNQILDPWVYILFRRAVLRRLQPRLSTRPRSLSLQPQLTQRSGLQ
Also: assay procedure not described here.

cGMP-inhibited 3',5'-cyclic phosphodiesterase 3A, sequence (Q14432 whole entry): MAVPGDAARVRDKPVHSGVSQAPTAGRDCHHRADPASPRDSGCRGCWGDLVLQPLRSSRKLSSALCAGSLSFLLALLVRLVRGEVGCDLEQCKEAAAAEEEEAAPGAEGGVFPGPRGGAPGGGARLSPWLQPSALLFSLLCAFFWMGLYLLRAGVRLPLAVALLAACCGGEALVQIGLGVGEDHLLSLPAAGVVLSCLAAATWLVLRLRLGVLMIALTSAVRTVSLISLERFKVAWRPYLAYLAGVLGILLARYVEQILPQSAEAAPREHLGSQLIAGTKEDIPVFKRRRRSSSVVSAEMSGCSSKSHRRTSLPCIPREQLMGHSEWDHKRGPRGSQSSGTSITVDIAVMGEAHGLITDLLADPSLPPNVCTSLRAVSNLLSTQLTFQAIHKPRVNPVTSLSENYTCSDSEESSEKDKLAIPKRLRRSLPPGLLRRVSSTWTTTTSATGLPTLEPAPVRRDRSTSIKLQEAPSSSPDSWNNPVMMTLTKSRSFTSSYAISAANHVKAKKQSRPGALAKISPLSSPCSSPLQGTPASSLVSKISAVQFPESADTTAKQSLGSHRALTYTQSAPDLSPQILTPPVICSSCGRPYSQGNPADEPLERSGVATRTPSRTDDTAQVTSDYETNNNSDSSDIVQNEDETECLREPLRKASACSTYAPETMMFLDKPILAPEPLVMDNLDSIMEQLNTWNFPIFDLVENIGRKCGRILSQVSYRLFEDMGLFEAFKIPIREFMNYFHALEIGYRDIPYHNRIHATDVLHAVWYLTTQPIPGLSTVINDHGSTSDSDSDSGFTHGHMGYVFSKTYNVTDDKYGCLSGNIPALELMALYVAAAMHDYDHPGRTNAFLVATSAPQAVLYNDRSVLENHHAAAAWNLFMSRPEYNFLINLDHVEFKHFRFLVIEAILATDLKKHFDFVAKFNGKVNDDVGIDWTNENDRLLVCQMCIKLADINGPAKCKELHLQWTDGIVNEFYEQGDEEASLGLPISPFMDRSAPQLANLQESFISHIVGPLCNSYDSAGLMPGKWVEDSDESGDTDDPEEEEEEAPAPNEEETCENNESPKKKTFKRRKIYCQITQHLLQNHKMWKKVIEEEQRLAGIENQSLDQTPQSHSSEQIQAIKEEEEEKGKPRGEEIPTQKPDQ
T4 sequence (P23219 whole entry): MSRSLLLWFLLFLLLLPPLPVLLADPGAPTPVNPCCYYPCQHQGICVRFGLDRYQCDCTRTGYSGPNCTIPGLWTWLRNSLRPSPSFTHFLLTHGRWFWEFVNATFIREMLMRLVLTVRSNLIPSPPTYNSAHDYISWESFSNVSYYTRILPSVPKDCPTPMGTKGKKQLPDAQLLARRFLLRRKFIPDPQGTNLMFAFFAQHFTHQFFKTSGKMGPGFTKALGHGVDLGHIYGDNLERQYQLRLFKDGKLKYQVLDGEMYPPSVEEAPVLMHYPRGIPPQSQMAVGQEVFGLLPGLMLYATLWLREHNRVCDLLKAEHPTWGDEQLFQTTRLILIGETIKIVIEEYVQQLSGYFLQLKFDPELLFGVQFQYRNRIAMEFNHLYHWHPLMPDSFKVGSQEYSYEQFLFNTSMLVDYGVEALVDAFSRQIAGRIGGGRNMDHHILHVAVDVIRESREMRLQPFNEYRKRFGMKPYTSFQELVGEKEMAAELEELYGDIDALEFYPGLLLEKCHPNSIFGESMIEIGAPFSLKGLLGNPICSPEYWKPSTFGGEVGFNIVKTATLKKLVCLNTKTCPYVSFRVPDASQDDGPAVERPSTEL
Voltage-gated inwardly rectifying potassium channel KCNH2, sequence (Q12809 whole entry): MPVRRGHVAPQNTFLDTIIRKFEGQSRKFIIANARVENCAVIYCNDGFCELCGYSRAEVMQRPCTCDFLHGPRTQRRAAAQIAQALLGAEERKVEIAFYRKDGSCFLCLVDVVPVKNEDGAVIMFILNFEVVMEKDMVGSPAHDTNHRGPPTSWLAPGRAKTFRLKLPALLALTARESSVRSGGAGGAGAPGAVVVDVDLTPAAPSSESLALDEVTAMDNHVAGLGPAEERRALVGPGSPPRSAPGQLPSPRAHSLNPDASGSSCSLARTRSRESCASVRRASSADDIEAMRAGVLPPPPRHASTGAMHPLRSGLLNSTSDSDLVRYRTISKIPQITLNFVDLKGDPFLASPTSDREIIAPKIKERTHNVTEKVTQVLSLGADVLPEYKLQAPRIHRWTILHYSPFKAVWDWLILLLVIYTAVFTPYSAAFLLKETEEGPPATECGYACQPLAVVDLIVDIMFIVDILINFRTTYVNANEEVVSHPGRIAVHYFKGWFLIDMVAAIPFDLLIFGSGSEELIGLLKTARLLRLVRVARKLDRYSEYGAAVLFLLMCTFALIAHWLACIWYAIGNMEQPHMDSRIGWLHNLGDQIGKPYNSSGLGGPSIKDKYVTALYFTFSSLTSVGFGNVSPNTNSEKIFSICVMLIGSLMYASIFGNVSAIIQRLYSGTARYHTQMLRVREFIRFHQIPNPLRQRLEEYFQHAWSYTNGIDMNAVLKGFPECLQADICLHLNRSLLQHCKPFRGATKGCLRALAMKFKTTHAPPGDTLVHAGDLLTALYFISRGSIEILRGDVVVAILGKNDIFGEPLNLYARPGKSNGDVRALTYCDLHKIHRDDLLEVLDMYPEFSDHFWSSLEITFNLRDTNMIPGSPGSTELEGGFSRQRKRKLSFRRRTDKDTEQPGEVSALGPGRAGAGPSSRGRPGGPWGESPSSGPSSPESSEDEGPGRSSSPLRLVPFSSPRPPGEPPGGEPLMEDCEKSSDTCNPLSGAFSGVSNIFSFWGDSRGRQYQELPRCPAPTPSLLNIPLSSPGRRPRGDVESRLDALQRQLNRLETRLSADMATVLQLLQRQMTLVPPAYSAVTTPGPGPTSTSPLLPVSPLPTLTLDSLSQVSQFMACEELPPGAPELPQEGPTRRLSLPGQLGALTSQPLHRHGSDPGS
Sodium-dependent noradrenaline transporter, sequence (P23975 whole entry): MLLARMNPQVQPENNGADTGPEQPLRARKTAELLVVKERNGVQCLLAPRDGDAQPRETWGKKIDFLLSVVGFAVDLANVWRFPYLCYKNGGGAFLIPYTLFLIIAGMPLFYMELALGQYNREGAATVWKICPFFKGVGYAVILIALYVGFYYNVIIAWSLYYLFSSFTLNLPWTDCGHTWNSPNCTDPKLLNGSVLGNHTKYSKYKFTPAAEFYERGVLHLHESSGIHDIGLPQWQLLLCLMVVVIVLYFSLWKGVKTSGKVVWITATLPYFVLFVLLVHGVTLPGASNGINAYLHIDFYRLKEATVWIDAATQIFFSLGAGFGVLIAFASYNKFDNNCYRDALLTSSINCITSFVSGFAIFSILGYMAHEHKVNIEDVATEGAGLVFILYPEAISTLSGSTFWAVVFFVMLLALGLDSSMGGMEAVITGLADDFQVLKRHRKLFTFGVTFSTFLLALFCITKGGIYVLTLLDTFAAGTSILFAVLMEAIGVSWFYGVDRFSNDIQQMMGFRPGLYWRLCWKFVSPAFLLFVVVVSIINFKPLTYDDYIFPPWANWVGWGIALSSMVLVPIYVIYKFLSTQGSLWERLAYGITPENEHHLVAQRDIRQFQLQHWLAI
D(3) dopamine receptor, sequence (P35462 whole entry): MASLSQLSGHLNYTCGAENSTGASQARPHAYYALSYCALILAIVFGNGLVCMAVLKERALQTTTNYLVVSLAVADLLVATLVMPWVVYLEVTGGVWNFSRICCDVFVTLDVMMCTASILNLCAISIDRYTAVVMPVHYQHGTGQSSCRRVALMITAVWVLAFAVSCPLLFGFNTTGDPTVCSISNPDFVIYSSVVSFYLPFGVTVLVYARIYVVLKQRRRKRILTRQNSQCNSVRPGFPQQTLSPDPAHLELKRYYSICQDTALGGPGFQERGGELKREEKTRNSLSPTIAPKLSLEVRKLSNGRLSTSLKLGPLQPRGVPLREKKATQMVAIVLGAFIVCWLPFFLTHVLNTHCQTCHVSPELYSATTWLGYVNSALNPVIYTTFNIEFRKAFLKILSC
3',5'-cyclic-AMP phosphodiesterase 4A, sequence (P27815 whole entry): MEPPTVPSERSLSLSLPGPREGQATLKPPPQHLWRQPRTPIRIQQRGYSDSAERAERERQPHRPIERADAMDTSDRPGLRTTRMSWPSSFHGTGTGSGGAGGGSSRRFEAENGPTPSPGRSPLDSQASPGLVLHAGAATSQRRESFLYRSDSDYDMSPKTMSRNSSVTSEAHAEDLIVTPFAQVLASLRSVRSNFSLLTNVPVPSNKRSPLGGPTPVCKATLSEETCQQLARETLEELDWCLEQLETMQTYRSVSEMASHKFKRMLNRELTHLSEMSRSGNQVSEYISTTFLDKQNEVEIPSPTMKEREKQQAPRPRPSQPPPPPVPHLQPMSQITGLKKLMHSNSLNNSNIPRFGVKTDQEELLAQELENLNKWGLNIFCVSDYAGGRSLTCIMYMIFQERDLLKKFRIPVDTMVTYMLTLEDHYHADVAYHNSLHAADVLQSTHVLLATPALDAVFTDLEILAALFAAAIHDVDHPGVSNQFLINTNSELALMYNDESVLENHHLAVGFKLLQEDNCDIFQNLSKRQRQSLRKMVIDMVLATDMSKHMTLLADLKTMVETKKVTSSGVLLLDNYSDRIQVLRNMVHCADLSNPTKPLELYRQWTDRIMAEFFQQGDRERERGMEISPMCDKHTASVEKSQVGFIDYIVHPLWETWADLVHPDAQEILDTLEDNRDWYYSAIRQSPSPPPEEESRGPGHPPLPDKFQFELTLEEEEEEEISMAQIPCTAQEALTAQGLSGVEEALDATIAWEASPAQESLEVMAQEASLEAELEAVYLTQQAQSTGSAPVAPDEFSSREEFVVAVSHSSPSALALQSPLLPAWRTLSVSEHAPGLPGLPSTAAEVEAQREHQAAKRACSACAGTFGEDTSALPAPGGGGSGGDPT

CNC[C@H](O)c1ccc(O)c(O)c1 [EPINEPHRINE]
AC50 [1]: > 30 µM

Cc1onc(-c2c(F)cccc2Cl)c1C(=O)N[C@@H]1C(=O)N2[C@@H]1SC(C)(C)[C@@H]2C(=O)O [FLOXACILLIN]
AC50 [1]: > 30 µM

C#C[C@]1(O)C=C[C@H]2[C@@H]3CCC4=CC(=O)CC[C@@H]4[C@H]3CC[C@@]21CC [GESTODENE]
AC50 [2]: > 30 µM
AC50 [3]: > 30 µM
AC50 [4]: > 30 µM
AC50 [5]: > 30 µM
AC50 [6]: > 30 µM
AC50 [7]: > 30 µM
AC50 [8]: > 30 µM
AC50 [9]: > 30 µM
AC50 [10]: > 30 µM
AC50 [11]: > 30 µM
AC50 [12]: > 30 µM
AC50 [13]: > 30 µM
AC50 [14]: > 30 µM
AC50 [15]: > 30 µM

CC[C@@H](CO)NC(=O)[C@@H]1C=C2c3cccc4c3c(cn4C)C[C@H]2N(C)C1 [METHYSERGIDE]
AC50 [1]: > 30 µM

CNC(=C[N+](=O)[O-])NCCSCc1csc(CN(C)C)n1 [NIZATIDINE]
AC50 [1]: > 30 µM

CN1Cc2c(N)cccc2C(c2ccccc2)C1 (stereo not drawn) [NOMIFENSINE]
AC50 [1]: 4.8 µM

CC(CN1c2ccccc2Sc2ccccc21)N(C)C (stereo not drawn) [PROMETHAZINE]
AC50 [2]: > 30 µM
AC50 [4]: 1.72 µM
AC50 [5]: 0.46 µM
AC50 [6]: > 30 µM
AC50 [7]: 0.7 µM
AC50 [8]: > 30 µM
AC50 [1]: 0.922 µM
AC50 [9]: > 30 µM
AC50 [10]: > 30 µM
AC50 [11]: > 30 µM
AC50 [12]: > 30 µM
AC50 [14]: 11.3 µM
AC50 [15]: > 3 µM

CCCc1cc(=O)[nH]c(=S)[nH]1 [PROPYLTHIOURACIL]
AC50 [1]: > 30 µM

Cn1cc(C(=O)[C@@H]2CCc3nc[nH]c3C2)c2ccccc21 [RAMOSETRON]
AC50 [1]: 4.7 µM

CN(CCOc1ccc(CC2SC(=O)NC2=O)cc1)c1ccccn1 (stereo not drawn) [ROSIGLITAZONE]
AC50 [1]: 13 µM

S=P(N1CC1)(N1CC1)N1CC1 [THIOTEPA]
AC50 [1]: 9.6 µM

CC(C)C[C@H](NC(=O)[C@@H](O)[C@H](N)Cc1ccccc1)C(=O)O [UBENIMEX]
AC50 [2]: > 30 µM
AC50 [3]: > 30 µM
AC50 [4]: > 30 µM
AC50 [5]: > 30 µM
AC50 [6]: > 30 µM
AC50 [7]: > 30 µM
AC50 [8]: > 30 µM
AC50 [1]: > 30 µM
AC50 [9]: > 30 µM
AC50 [10]: > 30 µM
AC50 [11]: > 30 µM
AC50 [12]: > 30 µM
AC50 [13]: > 30 µM
AC50 [14]: > 30 µM
AC50 [15]: > 30 µM

CC(C)[C@H](N)C(=O)OCCOCn1cnc2c(=O)[nH]c(N)nc21 [VALACYCLOVIR]
AC50 [1]: > 30 µM

COc1cc(C(=O)NS(=O)(=O)c2ccccc2C)ccc1Cc1cn(C)c2ccc(NC(=O)OC3CCCC3)cc12 [ZAFIRLUKAST]
AC50 [1]: > 30 µM
